The values that follow are results of earlier work, collected in patent US10329321B2, “Site-selective functionalization of proteins using traceless affinity labels” (priority 2016, dated 2019).

For data set [1] the following is noted: imidazole ring of histidine or its fluorinated replacement.
Data set [2] deals with nucleotide binding pocket (NBP) in immunoglobulin Fab arms. To be noted: binding affinity dependent on the antibody.

The term pKa denotes the pH at which an ionisable group is half protonated. For the compound `Fc1c[nH]cn1` [4-fluoro-imidazole], the pKa in data set [1] was approximately 1.76.

In the case of `N[C@@H](Cc1c[nH]cn1)C(=O)O` [histidine], the pKa in data set [1] is approximately 6.

One may read the Kd as a measure of binding affinity in units of concentration. As for `O=C(O)CCCc1c[nH]c2ccccc12` [indole-3-butryic acid, 4-(3-indolyl)butyric acid], the Kd in data set [2] is 1 to 8 µM.

Turning to `Fc1ncc[nH]1` [2-fluoro-imidazole], the pKa in data set [1] is approximately 1.22.
